# Measured values from US8530177B2, “Chloral hydrate detection” (Randox Laboratories Limited, priority 2010, dated 2013).
# What was measured:
# [1] = average person, drinking water guidance; cited from earlier work
# [2] = twenty four hours following a single oral dose; cited from earlier work
# [3] = system: antibody of the invention (polyclonal IgG raised against Immunogen II, TCG-BTG); test: Competitive ELISA for TCG: cross-reactivity and specificity of the antibody; type: binding, sheep; details: for IC50 = standard concentration which produces 50% B/B0: hapten A-HRP conjugate
# Description: TCG was coupled to bovine thyroglobulin (Immunogen II, Example 5). The resulting immunogen was administered to adult sheep on a monthly basis to provide target-specific polyclonal antisera. IgG was extracted from the antisera via caprylic acid/ammonium sulphate precipitation of immunoglobulin. Microtitre plates (Thermo Scientific, 468667) were coated with antibody (125 μl) in coating buffer (10 mM Tris pH 8.5) at 37° C. for 2 hours. Antibody was coated at 1.25 μg/ml. The plates were then washed. 50 μl of sample/standard (trichloroethyl glucuronide, Randox LK811; chloral hydrate, Sigma C8383-100 g; trichloroacetic acid, Fisher Scientific T/3000/50; ETG, Randox LK589) was added to the appropriate wells in triplicate, followed by 75 μl of hapten A-HRP conjugate at ¼K and incubated at 25° C. for 1 hour. The plates were then washed and 125 μl of TMB (Randox, 4380-15) was added to each well and left at room temperature for 20 mins in the dark. The reaction was stopped using 125 μl of 0.2M sulphuric acid. The absorbances were read at 450 nm with an ELISA microplate reader (BIO-TEK Instruments, Elx800) and the means calculated. Antibody specificity and sensitivity were then determined.
# Competitive ELISA results in the Table 1 below highlight the specificity of the antibody of the invention towards TCG.
# [4] = metabolite of chloral hydrate; cited from earlier work
SMILES,% CR = percentage cross-reactivity based on 100% specificity to TCG ([3]; competitive ELISA),IC50 = standard concentration which produces 50% B/B0 ([3]; competitive ELISA),% B/B0 ([3]; standard 31.25 ng/ml),A450 (absorbance at 450 nm) ([3]; standard 31.25 ng/ml),% B/B0 ([3]; standard 62.5 ng/ml),A450 (absorbance at 450 nm) ([3]; standard 62.5 ng/ml),% B/B0 ([3]; standard 125 ng/ml),A450 (absorbance at 450 nm) ([3]; standard 125 ng/ml),% B/B0 ([3]; standard 250 ng/ml),A450 (absorbance at 450 nm) ([3]; standard 250 ng/ml),% B/B0 ([3]; standard 500 ng/ml),A450 (absorbance at 450 nm) ([3]; standard 500 ng/ml),% B/B0 ([3]; standard 1000 ng/ml),A450 (absorbance at 450 nm) ([3]; standard 1000 ng/ml),% B/B0 ([3]; standard 2000 ng/ml),A450 (absorbance at 450 nm) ([3]; standard 2000 ng/ml),further results
"OC(O)C(Cl)(Cl)Cl [Chloral Hydrate, 2,2,2-trichloroethanediol]",,,,,,,,,,,,,,,,,Tolerable Daily Intake (TDI) [1]: 0.3 mg/day; excreted in the urine as TCG [2]: ~28%; excreted in the urine as trichloroethanol [2]: approximately 0.7%
"CCO[C@@H]1O[C@H](C(=O)O)[C@@H](O)[C@H](O)[C@H]1O [EtG, ethyl glucuronide]",<<0.69%,>>2000 ng/ml,86.7%,1.183,83.9%,1.144,84.8%,1.157,82.8%,1.130,80.2%,1.094,75.6%,1.031,69.6%,0.950,"cross-reactivity with the antibody of the invention (in words) ([3]; competitive ELISA, Table 1): does not cross-react"
"O=C(O)[C@H]1O[C@@H](OCC(Cl)(Cl)Cl)[C@H](O)[C@@H](O)[C@@H]1O [TCG, trichloroethanol glucuronide]",100%,13.724 ng/mL,,,,,,,,,,,,,,,% B/B0 ([3]; standard 1.25 ng/ml): 86.6%; A450 (absorbance at 450 nm) ([3]; standard 1.25 ng/ml): 1.313; % B/B0 ([3]; standard 2.5 ng/ml): 81.0%; A450 (absorbance at 450 nm) ([3]; standard 2.5 ng/ml): 1.228; % B/B0 ([3]; standard 5 ng/ml): 70.0%; A450 (absorbance at 450 nm) ([3]; standard 5 ng/ml): 1.061; % B/B0 ([3]; standard 10 ng/ml): 57.5%; A450 (absorbance at 450 nm) ([3]; standard 10 ng/ml): 0.872; % B/B0 ([3]; standard 20 ng/ml): 42.3%; A450 (absorbance at 450 nm) ([3]; standard 20 ng/ml): 0.641; % B/B0 ([3]; standard 40 ng/ml): 30.7%; A450 (absorbance at 450 nm) ([3]; standard 40 ng/ml): 0.465; % B/B0 ([3]; standard 80 ng/ml): 24.6%; A450 (absorbance at 450 nm) ([3]; standard 80 ng/ml): 0.373
"O=C(O)C(Cl)(Cl)Cl [Trichloroacetic Acid, trichloroacetic acid]",<<0.69%,>>2000 ng/ml,91.2%,1.372,92.5%,1.391,92.4%,1.389,87.2%,1.312,85.4%,1.284,81.8%,1.230,72.7%,1.094,half-life [4]: approximately 4 days
